Earlier results on 27 compounds are cited in patent publication US9849145B2, “Pharmaceutical composition containing honeysuckle extract and antibiotics, pharmaceutical kit, and use of honeysuckle extract for preparation of drug” (priority 2011, dated 2017).

Common to all, as to design: key: Resistant; Sensitive; Intermediate degree (moderate resistance)
The test system of data set [1] is Klebsiella pneumoniae. Conditions: clinical isolate, specimen 31494, sputum; cited from earlier work.
Data set [2] concerns Klebsiella pneumoniae. Conditions: clinical isolate, specimen 31853, urine; cited from earlier work.
The subject of another data set is Escherichia coli. As to conditions: clinical isolate, specimen 32042, urine; cited from earlier work.
A further data set relates to Pseudomona aeruginosa. Conditions: clinical isolate, specimen 12; cited from earlier work.
The next data set concerns Staphylococcus aureus. Conditions: clinical isolate, specimen Y31692, secretion; cited from earlier work.

Turning to amoxicillin/clavulanic acid [AMC], the “drug resistant spectrum of the experimental strain of Klebsiella pneumoniae” value (“drug resistant spectrum” for short) in the data set with Klebsiella pneumoniae [1] is listed as “I”. Moreover, the “resistance of Klebsiella pneumoniae to the antibiotic” value (“resistance of Klebsiella pneumoniae” for short) in the data set with Klebsiella pneumoniae [2] is listed as “S”. In addition, the “resistance of Escherichia coli to the antibiotic” value (shortened to “resistance of Escherichia coli”) in the data set with Escherichia coli was “I”.

For the compound ampicillin/sulbactam [SAM], the “resistance of Pseudomona aeruginosa to the antibiotic” value (shortened to “resistance of Pseudomona aeruginosa”) with Pseudomona aeruginosa is reported as “R”. The “resistance of Staphylococcus aureus to the antibiotic” value (shortened to “resistance of Staphylococcus aureus”) with Staphylococcus aureus was “S”.

On to `CO/N=C(\C(=O)N[C@@H]1C(=O)N2C(C(=O)O)=C(COC(C)=O)CS[C@H]12)c1csc(N)n1` [CTX, cefotaxime], for which the “drug resistant spectrum” value in the data set on Klebsiella pneumoniae [1] was “R”. Moreover, the “resistance of Pseudomona aeruginosa” value in the data set with Pseudomona aeruginosa was “S”. The “resistance of Klebsiella pneumoniae” value in the data set on Klebsiella pneumoniae [2] is reported as “S”. For the same compound, the “resistance of Escherichia coli” value with Escherichia coli is on record as “R”.

For piperacillin/tazobactam [TZP], in the data set with Klebsiella pneumoniae [1], the “drug resistant spectrum” value is “I”. For the same compound, in the data set on Pseudomona aeruginosa, the “resistance of Pseudomona aeruginosa” value is reported as “S”. Further, in the data set on Klebsiella pneumoniae [2], the “resistance of Klebsiella pneumoniae” value is listed as “S”. In addition, the “resistance of Escherichia coli” value with Escherichia coli is listed as “I”.

As to sulperazon [CLS], in the data set with Pseudomona aeruginosa, the “resistance of Pseudomona aeruginosa” value was “S”.

For the compound `CCn1cc(C(=O)O)c(=O)c2cc(F)c(N3CCNCC3)cc21` [NOR, norfloxacin], the “resistance of Pseudomona aeruginosa” value in the data set with Pseudomona aeruginosa is recorded as “S”.

Regarding gentamicin, in the data set on Klebsiella pneumoniae [1], the “drug resistant spectrum” value is “R”. Moreover, in the data set with Pseudomona aeruginosa, the “resistance of Pseudomona aeruginosa” value was “S”. Also, the “resistance of Klebsiella pneumoniae” value in the data set with Klebsiella pneumoniae [2] is “S”. For the same compound, the “resistance of Escherichia coli” value in the data set with Escherichia coli is “R”. For the same compound, the “resistance of Staphylococcus aureus” value in the data set on Staphylococcus aureus was “S”.

Regarding `CO/N=C(\C(=O)N[C@@H]1C(=O)N2C(C(=O)O)=C(CSc3nc(=O)c(=O)[nH]n3C)CS[C@H]12)c1csc(N)n1` [CRO, ceftriaxone], the “drug resistant spectrum” value in the data set with Klebsiella pneumoniae [1] was “R”. In the data set on Pseudomona aeruginosa, the “resistance of Pseudomona aeruginosa” value is listed as “R”. Besides, the “resistance of Klebsiella pneumoniae” value in the data set on Klebsiella pneumoniae [2] is on record as “S”. Besides, the “resistance of Escherichia coli” value in the data set with Escherichia coli is recorded as “R”.

Turning to `CO[C@H]1/C=C/O[C@@]2(C)Oc3c(C)c(O)c4c(O)c(c(/C=N/N5CCN(C)CC5)c(O)c4c3C2=O)NC(=O)/C(C)=C\C=C\[C@H](C)[C@H](O)[C@@H](C)[C@@H](O)[C@@H](C)[C@H](OC(C)=O)[C@@H]1C` [RIF, rifampin], the “resistance of Staphylococcus aureus” value with Staphylococcus aureus is reported as “S”.

With `CC[C@H]1OC(=O)[C@H](C)[C@@H](O[C@H]2C[C@@](C)(OC)[C@@H](O)[C@H](C)O2)[C@H](C)[C@@H](O[C@@H]2O[C@H](C)C[C@H](N(C)C)[C@H]2O)[C@](C)(O)C[C@@H](C)C(=O)[C@H](C)[C@@H](O)[C@]1(C)O` [ERY, erythromycin], the “resistance of Staphylococcus aureus” value with Staphylococcus aureus was “R”.

For `CO/N=C(\C(=O)N[C@@H]1C(=O)N2C(C(=O)O)=C(COC(N)=O)CS[C@H]12)c1ccco1` [CXM, cefuroxime], the “drug resistant spectrum” value in the data set on Klebsiella pneumoniae [1] is “R”. Besides, in the data set on Pseudomona aeruginosa, the “resistance of Pseudomona aeruginosa” value was “R”. In addition, the “resistance of Klebsiella pneumoniae” value in the data set on Klebsiella pneumoniae [2] is “S”. For the same compound, in the data set on Escherichia coli, the “resistance of Escherichia coli” value is reported as “R”.

`Cc1onc(-c2ccccc2)c1C(=O)N[C@@H]1C(=O)N2[C@@H]1SC(C)(C)[C@@H]2C(=O)O` [OXA, oxacillin]: in the data set with Staphylococcus aureus, the “resistance of Staphylococcus aureus” value was “S”.

On to `O=C(N[C@H](CO)[C@H](O)c1ccc([N+](=O)[O-])cc1)C(Cl)Cl` [CHL, chloramphenicol], for which the “drug resistant spectrum” value in the data set with Klebsiella pneumoniae [1] was “R”. In the data set with Klebsiella pneumoniae [2], the “resistance of Klebsiella pneumoniae” value is given as “I”. The “resistance of Escherichia coli” value in the data set with Escherichia coli was “S”.

As to `CO[C@@]1(NC(=O)Cc2cccs2)C(=O)N2C(C(=O)O)=C(COC(N)=O)CS[C@@H]21` [FOX, cefoxitin], the “drug resistant spectrum” value with Klebsiella pneumoniae [1] is given as “S”. Besides, in the data set with Klebsiella pneumoniae [2], the “resistance of Klebsiella pneumoniae” value is recorded as “S”. The “resistance of Escherichia coli” value in the data set on Escherichia coli was “R”. For the same compound, the “resistance of Staphylococcus aureus” value in the data set on Staphylococcus aureus is “S”.

As for `NCC[C@H](O)C(=O)N[C@@H]1C[C@H](N)[C@@H](O[C@H]2O[C@H](CN)[C@@H](O)[C@H](O)[C@H]2O)[C@H](O)[C@H]1O[C@H]1O[C@H](CO)[C@@H](O)[C@H](N)[C@H]1O` [AMK, amikacin], the “drug resistant spectrum” value with Klebsiella pneumoniae [1] is recorded as “S”. The “resistance of Pseudomona aeruginosa” value with Pseudomona aeruginosa is listed as “S”. Further, in the data set with Klebsiella pneumoniae [2], the “resistance of Klebsiella pneumoniae” value was “S”. In the data set on Escherichia coli, the “resistance of Escherichia coli” value is “S”. The “resistance of Staphylococcus aureus” value with Staphylococcus aureus was “S”.

Consider `CC(C)(O/N=C(\C(=O)N[C@@H]1C(=O)N2C(C(=O)[O-])=C(C[n+]3ccccc3)CS[C@H]12)c1csc(N)n1)C(=O)O` [CAZ, ceftazidime], for which, in the data set on Klebsiella pneumoniae [1], the “drug resistant spectrum” value is recorded as “S”. Further, the “resistance of Pseudomona aeruginosa” value with Pseudomona aeruginosa is listed as “S”. Also, the “resistance of Klebsiella pneumoniae” value with Klebsiella pneumoniae [2] is “S”. Also, the “resistance of Escherichia coli” value in the data set on Escherichia coli was “R”.

`CCN1CCN(C(=O)N[C@@H](C(=O)N[C@@H]2C(=O)N3[C@@H]2SC(C)(C)[C@@H]3C(=O)O)c2ccccc2)C(=O)C1=O` [PIP, piperacillin]: in the data set with Klebsiella pneumoniae [1], the “drug resistant spectrum” value is reported as “R”. Also, the “resistance of Pseudomona aeruginosa” value with Pseudomona aeruginosa is “S”. Also, the “resistance of Klebsiella pneumoniae” value in the data set with Klebsiella pneumoniae [2] is reported as “I”. In the data set with Escherichia coli, the “resistance of Escherichia coli” value is “R”.

Consider `NC[C@H]1O[C@H](O[C@H]2[C@H](O)[C@@H](O[C@H]3O[C@H](CO)[C@@H](O)[C@H](N)[C@H]3O)[C@H](N)C[C@@H]2N)[C@H](N)C[C@@H]1O` [TOB, tobramycin], for which the “resistance of Pseudomona aeruginosa” value in the data set on Pseudomona aeruginosa was “S”.

On to `C[C@H]1COc2c(N3CCN(C)CC3)c(F)cc3c(=O)c(C(=O)O)cn1c23` [LEV, left-handed oxygen fluorine], for which the “resistance of Pseudomona aeruginosa” value in the data set on Pseudomona aeruginosa is given as “S”.

Turning to `CO/N=C(\C(=O)N[C@@H]1C(=O)N2C(C(=O)[O-])=C(C[N+]3(C)CCCC3)CS[C@H]12)c1csc(N)n1` [FEP, cefepime], the “drug resistant spectrum” value in the data set with Klebsiella pneumoniae [1] is given as “S”. Further, in the data set on Pseudomona aeruginosa, the “resistance of Pseudomona aeruginosa” value was “S”. Besides, the “resistance of Klebsiella pneumoniae” value in the data set with Klebsiella pneumoniae [2] was “S”. The “resistance of Escherichia coli” value in the data set on Escherichia coli is “R”.

For trimethoprim-sulfamethoxazole [SXT], the “drug resistant spectrum” value in the data set with Klebsiella pneumoniae [1] is listed as “R”. The “resistance of Klebsiella pneumoniae” value in the data set on Klebsiella pneumoniae [2] is recorded as “R”. Further, in the data set with Escherichia coli, the “resistance of Escherichia coli” value is given as “R”. The “resistance of Staphylococcus aureus” value in the data set with Staphylococcus aureus was “S”.

With `Cc1nnc(SCC2=C(C(=O)O)N3C(=O)[C@@H](NC(=O)Cn4cnnn4)[C@H]3SC2)s1` [CZO, cefazolin], the “drug resistant spectrum” value in the data set with Klebsiella pneumoniae [1] is “R”. Further, in the data set on Klebsiella pneumoniae [2], the “resistance of Klebsiella pneumoniae” value is on record as “S”. Further, the “resistance of Escherichia coli” value in the data set on Escherichia coli is listed as “R”.

For the compound `CN[C@H](CC(C)C)C(=O)N[C@H]1C(=O)N[C@@H](CC(N)=O)C(=O)N[C@H]2C(=O)N[C@H]3C(=O)N[C@H](C(=O)N[C@H](C(=O)O)c4cc(O)cc(O)c4-c4cc3ccc4O)[C@H](O)c3ccc(c(Cl)c3)Oc3cc2cc(c3O[C@@H]2O[C@H](CO)[C@@H](O)[C@H](O)[C@H]2O[C@H]2C[C@](C)(N)[C@H](O)[C@H](C)O2)Oc2ccc(cc2Cl)[C@H]1O` [VAN, vancomycin], the “resistance of Staphylococcus aureus” value in the data set with Staphylococcus aureus is “S”.

For the compound penicillin [PNE], in the data set with Staphylococcus aureus, the “resistance of Staphylococcus aureus” value is listed as “R”.

For the compound ticarcillin/clavulanic acid [TIM], the “resistance of Pseudomona aeruginosa” value with Pseudomona aeruginosa was “S”.

`CCN1CCN(C(=O)N[C@@H](C(=O)N[C@@H]2C(=O)N3C(C(=O)O)=C(CSc4nnnn4C)CS[C@H]23)c2ccc(O)cc2)C(=O)C1=O` [CFP, cefoperazone]: the “resistance of Pseudomona aeruginosa” value in the data set on Pseudomona aeruginosa is “S”.

In the case of `C[C@H]1[C@H](NC(=O)/C(=N\OC(C)(C)C(=O)O)c2csc(N)n2)C(=O)N1S(=O)(=O)O` [ATM, aztreonam], the “resistance of Pseudomona aeruginosa” value in the data set on Pseudomona aeruginosa is recorded as “S”.
